Reference: PMC10728186, “Acid phosphatase-like proteins, a biogenic amine and leukotriene-binding salivary protein family from the flea Xenopsylla cheopis” (Communications Biology, 2023)
Where two headings read alike, the source gives them in different places.

How the values were obtained:
Format in all cases: binding
XcAP-1 [1] = molecular target: T1, XcAP-1 (Xenopsylla cheopis, UniProt A2IA89); assay: isothermal titration calorimetry
T1 construct: mature ORF (no signal peptide) in VR1020 vector, secreted from HEK293 / Expi293; monomer; residues Asp7-Asn361 (mature count) seen in crystal; natural Gly and Ser in place of the two catalytic His
T1 sequence (A2IA89 17-374): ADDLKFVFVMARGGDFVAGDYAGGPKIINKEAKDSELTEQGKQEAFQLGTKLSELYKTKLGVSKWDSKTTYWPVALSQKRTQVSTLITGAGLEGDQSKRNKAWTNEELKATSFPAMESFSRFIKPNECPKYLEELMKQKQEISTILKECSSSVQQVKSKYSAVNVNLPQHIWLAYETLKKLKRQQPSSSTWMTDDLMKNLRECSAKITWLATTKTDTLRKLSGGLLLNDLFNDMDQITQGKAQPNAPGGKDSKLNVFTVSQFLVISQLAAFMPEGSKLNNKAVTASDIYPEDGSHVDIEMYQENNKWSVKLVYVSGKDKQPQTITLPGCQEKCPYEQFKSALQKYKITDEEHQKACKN
Excerpt: isothermal titration calorimetry on XcAP-1

XcAP-3 = molecular target: T2, XcAP-3 (Xenopsylla cheopis, UniProt A2IA90); assay: isothermal titration calorimetry
T2 construct: mature ORF (no signal peptide) in pcDNA3.1(+), secreted from HEK293 / Expi293; natural Gly and Pro in place of the two catalytic His; Thr10, Ile229, Lys266 (mature count)
T2 sequence (A2IA90 20-380): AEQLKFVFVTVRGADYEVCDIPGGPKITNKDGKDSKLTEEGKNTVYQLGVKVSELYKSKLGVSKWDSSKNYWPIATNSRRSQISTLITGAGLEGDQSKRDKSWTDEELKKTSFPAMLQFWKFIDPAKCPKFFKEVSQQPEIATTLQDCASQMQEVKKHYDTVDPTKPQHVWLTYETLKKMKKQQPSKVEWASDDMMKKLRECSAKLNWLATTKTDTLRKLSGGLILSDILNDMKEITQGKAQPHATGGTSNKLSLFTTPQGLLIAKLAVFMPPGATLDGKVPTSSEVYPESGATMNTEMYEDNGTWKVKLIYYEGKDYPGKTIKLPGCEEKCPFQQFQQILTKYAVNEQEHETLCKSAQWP
Excerpt: isothermal titration calorimetry on XcAP-3

XcAP-2 = molecular target: T3, XcAP-2 (Xenopsylla cheopis, UniProt A2IA93); assay: isothermal titration calorimetry
T3 construct: mature ORF (no signal peptide) in pcDNA3.1(+), secreted from HEK293 / Expi293; natural Gly and Pro in place of the two catalytic His; Thr10, Ile228, His265 (mature count)
T3 sequence (A2IA93 20-378): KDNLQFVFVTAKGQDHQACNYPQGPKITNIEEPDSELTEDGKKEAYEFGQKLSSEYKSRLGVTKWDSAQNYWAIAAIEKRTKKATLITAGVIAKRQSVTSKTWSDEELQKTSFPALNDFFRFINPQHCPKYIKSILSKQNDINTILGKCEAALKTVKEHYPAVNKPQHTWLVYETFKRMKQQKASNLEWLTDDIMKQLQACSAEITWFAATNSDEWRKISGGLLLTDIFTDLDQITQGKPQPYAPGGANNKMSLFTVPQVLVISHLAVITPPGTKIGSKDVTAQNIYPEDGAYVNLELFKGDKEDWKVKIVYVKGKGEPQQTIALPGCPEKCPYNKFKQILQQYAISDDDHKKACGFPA
Excerpt: isothermal titration calorimetry on XcAP-2

XcAP-1 [2] = molecular target: T1, XcAP-1; assay: isothermal titration calorimetry; crystal structure […] A
XcAP-1 [3] = molecular target: T1, XcAP-1; assay: crystal structure […] A; settings: co-purified from HEK293 culture, modelled from density; pocket near substituted catalytic residues; second site beside serotonin

Structure (SMILES) | Kd (XcAP-1 [1]; read-out: XcAP-1) | Kd (XcAP-2; read-out: XcAP-2) | also measured
CNC[C@H](O)c1ccc(O)c(O)c1 [Epinephrine] | 0.0177 µM |  | 
NCCc1c[nH]cn1 [Histamine] |  | 0.0377 µM | Kd (XcAP-3; read-out: K (M^-1) (converted)): 0.0292 µM; Kd (XcAP-3; read-out: XcAP-3): 0.037 µM; Kd (XcAP-2; read-out: K (M^-1) (converted)): 0.0439 µM
CCCCC/C=C\C[C@@H](O)/C=C/C=C/C=C\[C@@H](O)CCCC(=O)O [LTB4] |  | 0.111 µM | 
CCCCC/C=C\C\C=C/C=C/C=C/[C@@H](SC[C@H](NC(=O)CC[C@H](N)C(=O)O)C(=O)NCC(=O)O)[C@@H](O)CCCC(=O)O [LTC4] | 0.0374 µM | 0.0787 µM | Kd (XcAP-3; read-out: XcAP-3): 0.0658 µM
CCCCC/C=C\C\C=C/C=C/C=C/[C@@H](SC[C@H](N)C(=O)NCC(=O)O)[C@@H](O)CCCC(=O)O [LTD4] |  | 0.153 µM | 
CCCCC/C=C\C\C=C/C=C/C=C/[C@@H](SC[C@H](N)C(=O)O)[C@@H](O)CCCC(=O)O [LTE4] |  | 0.0602 µM | 
NC[C@H](O)c1ccc(O)c(O)c1 [Norepinephrine] | 0.0769 µM |  | 
NCCc1c[nH]c2ccc(O)cc12 [Serotonin] |  |  | Kd (XcAP-1 [2]): 0.00372 µM; Kd (XcAP-1 [1]; read-out: K (M^-1) (converted)): 0.00592 µM
CCCCCC/C=C\CCCCCCCC(=O)O [palmitoleic acid] |  |  | crystal structure 1.75 A (XcAP-1 [3]): near the putative catalytic site of XcAP-1 was also observed, in which we modeled a palmitoleic acid
